Source: ChEMBL document CHEMBL1201862, “PubChem BioAssay data set” (2004)
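Results reflect a 48-hour exposure of cells in 96-well plates to compound at five concentrations. GI50: concentration for 50% inhibition of growth.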 Active and inactive are the calls of the source. Rule as the data show it: active = GI50 up to about 1.1 µM and inactive = higher.

Columns and labels:
Experiment in all cases: NCI-60 cell line screen, 48 h
MCF7 = system: MCF7
T47D = system: T47D
UO-31 = system: UO-31
UACC-257 = system: UACC-257
NCI-H23 = system: NCI-H23
IGROV-1 = system: IGROV-1
NCI-H522 = system: NCI-H522
786-0 = system: 786-0
A498 = system: A498
BT-549 = system: BT-549
HCT-15 = system: HCT-15
HOP-62 = system: HOP-62
MDA-MB-435 = system: MDA-MB-435
SK-MEL-2 = system: SK-MEL-2
Hs-578T = system: Hs-578T
SR = system: SR
MOLT-4 = system: MOLT-4
HOP-92 = system: HOP-92
SK-MEL-28 = system: SK-MEL-28
MDA-N = system: MDA-N
COLO 205 = system: COLO 205
CCRF-CEM = system: CCRF-CEM
HCC 2998 = system: HCC 2998
OVCAR-8 = system: OVCAR-8
PC-3 = system: PC-3
KM12 = system: KM12
U-251 = system: U-251
CAKI-1 = system: CAKI-1
SNB-75 = system: SNB-75
RXF 393 = system: RXF 393
SW-620 = system: SW-620
NCI-H226 = system: NCI-H226
SF-539 = system: SF-539
HCT-116 = system: HCT-116
RPMI-8226 = system: RPMI-8226
OVCAR-5 = system: OVCAR-5
OVCAR-4 = system: OVCAR-4
UACC-62 = system: UACC-62
ACHN = system: ACHN
HT-29 = system: HT-29
NCI-H460 = system: NCI-H460
Malme-3M = system: Malme-3M
NCI/ADR-RES = system: NCI/ADR-RES
TK-10 = system: TK-10
SK-MEL-5 = system: SK-MEL-5
MDA-MB-231 = system: MDA-MB-231
K562 = system: K562
OVCAR-3 = system: OVCAR-3
DU-145 = system: DU-145
SN12C = system: SN12C
SF-268 = system: SF-268
SK-OV-3 = system: SK-OV-3
SF-295 = system: SF-295
M14 = system: M14
A549 = system: A549
SNB-19 = system: SNB-19
EKVX = system: EKVX
HL-60 = system: HL-60

COc1ccc2c(c1)-c1c(c3cc(OC)ccc3n1CCN(C)C)CC2
GI50 (MCF7): 14.4 µM (inactive)
GI50 (T47D): 17.6 µM (inactive)
GI50 (UO-31): 11.1 µM (inactive)
GI50 (UACC-257): 15.6 µM (inactive)
GI50 (NCI-H23): 15.5 µM (inactive)
GI50 (IGROV-1): 12.1 µM (inactive)
GI50 (NCI-H522): 17.9 µM (inactive)
GI50 (786-0): 10.8 µM (inactive)
GI50 (A498): 11.7 µM (inactive)
GI50 (BT-549): 13.9 µM (inactive)
GI50 (HCT-15): 13.6 µM
GI50 (HOP-62): 15.8 µM (inactive)
GI50 (MDA-MB-435): 12.6 µM (inactive)
GI50 (SK-MEL-2): 14.5 µM (inactive)
GI50 (Hs-578T): 13.7 µM (inactive)
GI50 (SR): 7.03 µM (inactive)
GI50 (MOLT-4): 10.7 µM (inactive)
GI50 (HOP-92): 14.1 µM (inactive)
GI50 (SK-MEL-28): 15.9 µM (inactive)
GI50 (MDA-N): 14.2 µM (inactive)
GI50 (COLO 205): 12.2 µM (inactive)
GI50 (CCRF-CEM): 6.35 µM (inactive)
GI50 (HCC 2998): 7.48 µM (inactive)
GI50 (OVCAR-8): 17.4 µM (inactive)
GI50 (PC-3): 12.6 µM (inactive)
GI50 (KM12): 14 µM (inactive)
GI50 (U-251): 11.2 µM (inactive)
GI50 (CAKI-1): 14.6 µM (inactive)
GI50 (SNB-75): 21.9 µM (inactive)
GI50 (RXF 393): 13.5 µM (inactive)
GI50 (SW-620): 15.2 µM (inactive)
GI50 (NCI-H226): 13.4 µM (inactive)
GI50 (SF-539): 15.4 µM (inactive)
GI50 (HCT-116): 12.1 µM (inactive)
GI50 (RPMI-8226): 12.1 µM (inactive)
GI50 (OVCAR-5): 15.7 µM (inactive)
GI50 (OVCAR-4): 17.1 µM (inactive)
GI50 (UACC-62): 10.9 µM (inactive)
GI50 (ACHN): 15.1 µM (inactive)
GI50 (HT-29): 5.18 µM (inactive)
GI50 (NCI-H460): 12.2 µM (inactive)
GI50 (Malme-3M): 16.1 µM (inactive)
GI50 (NCI/ADR-RES): 16.3 µM (inactive)
GI50 (TK-10): 15.5 µM (inactive)
GI50 (SK-MEL-5): 12.4 µM (inactive)
GI50 (MDA-MB-231): 13.9 µM (inactive)
GI50 (K562): 6.81 µM (inactive)
GI50 (OVCAR-3): 14.3 µM (inactive)
GI50 (DU-145): 13.7 µM (inactive)
GI50 (SN12C): 12.9 µM (inactive)
GI50 (SF-268): 18.3 µM (inactive)
GI50 (SK-OV-3): 21.5 µM (inactive)
GI50 (SF-295): 17.8 µM (inactive)
GI50 (M14): 13.7 µM (inactive)
GI50 (A549): 15.4 µM (inactive)

COC(=O)[C@]1(C)CCC[C@@]2(C)C1CC[C@@]13C=C(C(C)C)[C@@H](CC1=O)CC23 (stereo partly drawn)
GI50 (MCF7): 26.1 µM (inactive)
GI50 (T47D): 32.4 µM (inactive)
GI50 (UO-31): 21.7 µM (inactive)
GI50 (UACC-257): 21.5 µM (inactive)
GI50 (NCI-H23): 34 µM (inactive)
GI50 (IGROV-1): 35.2 µM (inactive)
GI50 (NCI-H522): 18.6 µM (inactive)
GI50 (786-0): 25.9 µM (inactive)
GI50 (BT-549): 23 µM (inactive)
GI50 (HCT-15): 21.1 µM
GI50 (HOP-62): 30.6 µM (inactive)
GI50 (MDA-MB-435): 35.6 µM (inactive)
GI50 (Hs-578T): 13.4 µM (inactive)
GI50 (SR): 15.5 µM (inactive)
GI50 (MOLT-4): 15 µM (inactive)
GI50 (SK-MEL-28): 41.3 µM (inactive)
GI50 (MDA-N): 28.8 µM (inactive)
GI50 (COLO 205): > 10 µM (inactive)
GI50 (CCRF-CEM): 17.7 µM (inactive)
GI50 (HCC 2998): 38.3 µM (inactive)
GI50 (OVCAR-8): 29 µM (inactive)
GI50 (PC-3): 21.6 µM (inactive)
GI50 (SNB-19): 25.8 µM (inactive)
GI50 (KM12): 34.5 µM (inactive)
GI50 (U-251): 18.7 µM (inactive)
GI50 (CAKI-1): 34.2 µM (inactive)
GI50 (SNB-75): 59.7 µM (inactive)
GI50 (RXF 393): 21.5 µM (inactive)
GI50 (SW-620): 27.3 µM (inactive)
GI50 (NCI-H226): 21.1 µM (inactive)
GI50 (SF-539): 20.9 µM (inactive)
GI50 (HCT-116): 20.4 µM (inactive)
GI50 (RPMI-8226): 18.5 µM (inactive)
GI50 (OVCAR-4): 35.2 µM (inactive)
GI50 (UACC-62): 28.6 µM (inactive)
GI50 (ACHN): 18.6 µM (inactive)
GI50 (HT-29): 18.2 µM (inactive)
GI50 (NCI-H460): 35.4 µM (inactive)
GI50 (NCI/ADR-RES): 23 µM (inactive)
GI50 (TK-10): 43.8 µM (inactive)
GI50 (SK-MEL-5): 16.5 µM (inactive)
GI50 (EKVX): 27.4 µM (inactive)
GI50 (MDA-MB-231): 30.3 µM (inactive)
GI50 (HL-60): 19.8 µM (inactive)
GI50 (K562): 13.8 µM (inactive)
GI50 (OVCAR-3): 21.4 µM (inactive)
GI50 (DU-145): 38.4 µM (inactive)
GI50 (SN12C): 19.8 µM (inactive)
GI50 (SF-268): 32.5 µM (inactive)
GI50 (SK-OV-3): 46.3 µM (inactive)
GI50 (SF-295): 30.6 µM (inactive)
GI50 (M14): 38.5 µM (inactive)
GI50 (A549): 29.2 µM (inactive)
